Data: paper PMC9804489, “Phase 1/1b Studies of UCB0599, an Oral Inhibitor of α‐Synuclein Misfolding, Including a Randomized Study in Parkinson's Disease” (Movement Disorders, 2022)
Like-named read-outs stand apart in the source and are kept apart here.

What was measured:
[1] = UP0030 phase 1 study: plasma pharmacokinetics of UCB0599 and its metabolites; type: in vivo, human; conditions: for AUC: read-out: AUC, GeoMean; for Cmax: read-out: C max, GeoMean
Experimental: Statistical evaluations for all three studies were performed using SAS version 9.4 (SAS, Cary, NC, USA), and PK data were analyzed using Phoenix WinNonlin software (Certara, Princeton, NJ, USA). Continuous variables were summarized with number of participants, mean, standard deviation, median, minimum and maximum, and confidence intervals (CI) for the mean. Categorical variables were summarized with frequency counts and percentages.

[2] = UP0030 phase 1 SAD/MAD study: safety and tolerability in healthy participants
Experimental: Part 1 (Fig. S1A) was a randomized, subject‐ and investigator‐blind, placebo‐controlled study in healthy older participants (HOP). Part 2 (Fig. S1B) was an open‐label, two‐way crossover study in HPs.
Part 1 included five cohorts (1, 2, 1b, 2b, and 3) and evaluated SADs (SAD: 90, 180, 360, and 450 mg) and MADs of UCB0599 (MAD: 180 and 360 mg/day). […] The first two doses were administered as a two‐way crossover (under fasting/fed or fed/fasting conditions), and the third dose was administered to both arms under fasted conditions with 200 mg of ITZ (once daily, days −3 to 2) to assess potential drug–drug interactions.
Eligible participants were aged ≥18 years (part 1, 55–75 years for HOP; part 2, <55 years) with a body mass index (BMI) of 18–32 kg/m^2 and a body weight of ≥50 kg. The study was conducted at a phase 1 unit in Germany.
The primary objective was to evaluate the safety and tolerability of UCB0599 after the administration of single and multiple doses in HOP. The secondary objectives are to evaluate the PK of UCB0599 and its desmethyl and N‐oxide metabolites after the administration of single and multiple doses in HOP and to evaluate the PK, safety, and tolerability of UCB0599 in HPs when given a single dose alone, with food or with ITZ.
Safety variables included the incidence of any treatment‐emergent adverse event (TEAE), changes in vital signs, laboratory assessments, 12‐lead electrocardiogram (ECG) and Holter ECG assessment, and the Columbia Suicide Severity Rating Scale (C‐SSRS). PK variables included maximum plasma concentration (C max), time of maximum concentration (t max), AUC (area under the plasma concentration–time curve) from time 0 to last quantifiable concentration (AUC0–t ), AUC from time 0 to infinity (AUC0–inf), apparent total body clearance, apparent volume of distribution, and apparent elimination half‐life (t 1/2).

[3] = UP0078 phase 1 food/ITZ study: safety and tolerability in healthy participants
Experimental: UP0078 was a phase 1, open‐label study to evaluate the potential effect of food on the bioavailability of UCB0599 and to test the potential effect of ITZ on the disposition of UCB0599 in HPs. A randomized, two‐way crossover design with a third fixed‐treatment period was used (Fig. S2).
Participants received a single 180 mg dose of UCB0599 on three separate occasions, with a washout period of ≥7 days between doses. The first dose was administered under fasted conditions, the second under fed conditions, and the third under fasted conditions co‐administered with ITZ (200 mg once daily, days 15–22).
The study was conducted at a phase 1 unit in the United Kingdom.
The primary objectives were to assess the potential effect of food intake (standard high‐fat, high‐calorie meal) on single‐dose PK of UCB0599 and to evaluate and compare the single‐dose PK of UCB0599 in the presence or absence of ITZ. The secondary and exploratory objectives were to evaluate the safety and tolerability of UCB0599 under fasted and fed conditions, and with/without concomitant administration of ITZ; to evaluate UCB0599 metabolite plasma PK in the presence or absence of ITZ; and to assess the potential effect of food intake on the single‐dose PK of UCB0599 metabolites.
Primary PK variables were AUC0–t , AUC0–inf, C max, and t max. Primary safety variables were the incidence of TEAEs and serious TEAEs. […]

[4] = human, plasma, oral, UP0030 single dose 90 mg
[5] = human, plasma, oral, UP0030 single dose 450 mg
[6] = UP0030, UCB0599 180 mg/day, n=17
[7] = UP0030 part 2, fasted UCB0599 360 mg, n=3
[8] = UP0030 part 2, fed UCB0599 360 mg, n=3

Q: What does the source list for CCCC[C@H](Cc1c[nH]c2ccccc12)NC(=O)c1cnc(N2CCN(C)CC2)s1 [UCB0599]?
A: Plasma steady‐state concentration achieved, on average ([1]; UP0030, 180 mg/day): ≤ 7 days; Tmax ([1]; human, plasma, oral, UP0030, UCB0599 180 mg/day, read-out: Median t max after multiple doses): 1.5 to 3 h; Tmax ([1]; human, plasma, oral, UP0030 single ascending doses 90–450 mg, read-out: t max range): 1.5 to 2 h; half-life ([1]; human, plasma, oral, UP0030 single ascending doses of UCB0599, across dose groups, read-out: Apparent elimination half‐life, GeoMean range): 636 to 780 min; AUC [1, 4]: 3220 ng·h/mL; Cmax [1, 4]: 374 ng/mL; AUC [1, 5]: 17000 ng·h/mL; Cmax [1, 5]: 1810 ng/mL; Hypersensitivity reactions ([2]; UP0030): 2 n; Treatment‐related patterns for vital signs, ECG tracings, or laboratory findings ([2]; UP0030): no discernible UCB0599 treatment‐related patterns; TEAE Diarrhea ([2]; UP0030, UCB0599 90 mg, n=9): 0 n (%) […]; TEAE Drug hypersensitivity ([2]; UP0030, UCB0599 90 mg, n=9): 0 n (%) […]; TEAE Fatigue ([2]; UP0030, UCB0599 90 mg, n=9): 0 n (%) […]; TEAE Nasopharyngitis ([2]; UP0030, UCB0599 90 mg, n=9): 0 n (%) […]; TEAE Diarrhea ([2]; UP0030, UCB0599 180 mg, n=17): 0 n (%) […]; TEAE Drug hypersensitivity ([2]; UP0030, UCB0599 180 mg, n=17): 0 n (%) […]; TEAE Fatigue ([2]; UP0030, UCB0599 180 mg, n=17): 0 n (%) […]; TEAE Headache ([2]; UP0030, UCB0599 180 mg, n=17): 0 n (%) […]; TEAE Myalgia ([2]; UP0030, UCB0599 180 mg, n=17): 0 n (%) […]; TEAE Nasopharyngitis ([2]; UP0030, UCB0599 180 mg, n=17): 0 n (%) […]; TEAE Postlumbar puncture syndrome ([2]; UP0030, UCB0599 180 mg, n=17): 0 n (%) […]; TEAE Diarrhea [2, 6]: 0 n (%) […]; TEAE Fatigue [2, 6]: 0 n (%) […]; TEAE Postlumbar puncture syndrome [2, 6]: 0 n (%) […]; TEAE Presyncope [2, 6]: 0 n (%) […]; TEAE Drug hypersensitivity ([2]; UP0030, UCB0599 360 mg, n=18): 0 n (%) […]; TEAE Myalgia ([2]; UP0030, UCB0599 360 mg, n=18): 0 n (%) […]; TEAE Nasopharyngitis ([2]; UP0030, UCB0599 360 mg, n=18): 0 n (%) […]; TEAE Presyncope ([2]; UP0030, UCB0599 360 mg, n=18): 0 n (%) […]; TEAE Drug hypersensitivity ([2]; UP0030, UCB0599 450 mg, n=9): 0 n (%) […]; TEAE Fatigue ([2]; UP0030, UCB0599 450 mg, n=9): 0 n (%) […]; TEAE Myalgia ([2]; UP0030, UCB0599 450 mg, n=9): 0 n (%) […]; TEAE Presyncope ([2]; UP0030, UCB0599 450 mg, n=9): 0 n (%) […]; TEAE Puncture site pain ([2]; UP0030, UCB0599 450 mg, n=9): 0 n (%) […]; Time to resolution of HSRs ([2]; UP0030, after oral antihistamines): ≤ 3 days; Participants reporting serious TEAEs ([2]; UP0030 part 1): 4.4%; Deaths ([2]; UP0030 part 1, all UCB0599 N=45): 0 n (%) […]; Discontinuations due to drug hypersensitivity ([2]; UP0030 part 1, total UCB0599): 2 participants; Participants reporting TEAEs ([2]; UP0030 part 1, total UCB0599): 66.7%; Participants reporting severe TEAEs ([2]; UP0030 part 1, total UCB0599): 6.7%; Participants who discontinued due to TEAEs ([2]; UP0030 part 1, total UCB0599): 11.1%; Any TEAEs [2, 7]: 0 n (%) […]; Deaths [2, 7]: 0 n (%) […]; Discontinuations due to TEAEs [2, 7]: 0 n (%) […]; Drug‐related TEAEs [2, 7]: 0 n (%) […]; Serious TEAEs [2, 7]: 0 n (%) […]; Severe TEAEs [2, 7]: 0 n (%) […]; Participants reporting TEAEs ([2]; UP0030 part 2, fed UCB0599 360 mg): 33.3%; Deaths [2, 8]: 0 n (%) […]; Discontinuations due to TEAEs [2, 8]: 0 n (%) […]; Drug‐related TEAEs [2, 8]: 0 n (%) […]; Serious TEAEs [2, 8]: 0 n (%) […]; Severe TEAEs [2, 8]: 0 n (%) […]

Q: For CCC(C)n1ncn(-c2ccc(N3CCN(c4ccc(OCC5COC(Cn6cncn6)(c6ccc(Cl)cc6Cl)O5)cc4)CC3)cc2)c1=O (stereo not drawn) [ITZ, itraconazole, reference compound], which “TEAE considered related to the substance” value [3] is on record?
A: 9.1%
